Laboratory results taken from US6114326A, “Use of cabergoline in the treatment of restless legs syndrome” (priority 1999, dated 2000).
“Also recorded” adds a separate entry of the source.

Assays:
[1] = test system: restless legs syndrome patients; test: Patients' subjective ratings (PGI, RLS severity, sleep satisfaction, sleep diary, quality of life) in 12-week open label trial; assay type: in vivo
Experimental: Efficacy was assessed by polysomnography and subjective ratings.
(§1) Following a 2-week baseline period, all patients were treated with cabergoline in an open trial for 12 weeks. Apart from levodopa, patients had to stop taking any medication known to have positive or negative effect on RLS two weeks before baseline (i.e., other dopamine agonists, benzodiazepines, opioids or other psychotropic agents). Patients who were on levodopa therapy were allowed to either stop levodopa prior to study entry or to continue, taper or discontinue levodopa during the study. To prevent well known peripheral dopaminergic side-effects such as nausea, vomiting, vertigo and arterial hypotension domperidone (not available in the United States) was comedicated initially and also tapered if possible. […] Neurological case history, examination, electrocardiogramm, chest x-ray and polysomnography were performed to ensure that selection criteria were fulfilled. A two-night PSG (including one night of adaptation) was performed to evaluate the diagnosis and inclusion/exclusion criteria regardless if patients were on or off levodopa. After a 12-week treatment period patients were studied again for one night in the sleep laboratory. Subjective ratings were obtained at baseline, week 4, week 8 and at the endpoint after 12 weeks. In addition patients were monitored by phone calls to note any adverse events and to determine whether to increase the dosage of the study drug, to decrease levodopa and to decrease domperidone. The time schedule of phone calls was variable and the frequency mostly dependent on the presence of simultaneous levodopa therapy.
Dosing. Study medication was available in tablets containing 0.5 mg, 1 mg or 2 mg Cabergoline (Cabaseril®, Pharmacia & Upjohn, Erlangen, Germany). Medication was taken 2 hours prior to bedtime. Initial therapy consisted of one 0.5 mg tablet. […] The increased dose could be decreased again if necessary. All patients were initially comedicated with domperidone 20 mg t.i.d. which could be tapered and stopped if possible. Subjects who were pretreated with levodopa were asked to decrease levodopa simultaneously if possible.
Subjective ratings. After each night of recording and at each visit at week 2 and 4, patients rated the severity of illness (normal to extremely ill), the therapeutic effects by rating their global improvements by use of the Patients Global Impressions (general condition very much worse to very much better), the severity of RLS symptoms during the time of falling asleep, during the night and during the day (scale: 0=not present to 10=very strong) and sleep satisfaction (very unsatisfied to very satisfied). In addition patients rated their quality of life, concerning well being and complaints during the previous week, using modified 50-mm Hamburger Visual Analogue Scale. Patients also filled in a sleep diary at each study visit rating the following symptoms: global assessment of sleep (very bad to very good night), sleep latency, sleep time, frequency of awakenings and urge to move the legs at time falling asleep, during the night and during the day (scale: 0=not present to 10=very strong).
Statistical analysis. Statistical evaluation was performed as intent-to-treat analysis using descriptive statistics.

[2] = test system: restless legs syndrome patients; test: Safety / adverse events, tolerability, augmentation in 12-week open label trial; assay type: in vivo
Text: as §1, with “Apart” for “Following a 2-week baseline period, all patients were treated with cabergoline in an open trial for 12 weeks. Apart”, “therapy. Dosing. […] Medication was taken 2 hours prior to bedtime. Initial therapy consisted of one 0.5 mg tablet. […] The increased dose could be decreased again if necessary. […] Subjects who were pretreated with levodopa were asked to decrease levodopa simultaneously if possible. Physician's rating. The physician rated the severity of illness at baseline (normal to extremely ill), the global improvement (general condition very much worse to very much better) and the side effects by use of the Clinical Global Impressions (CGI). Safety. Safety of Cabergoline was assessed to the type and frequency of adverse event, clinically significant changes in laboratory data or ECG and premature discontinuation of study participation. Adverse events were classified as serious versus nonserious and characterized by intensity, relationship to drug treatment, frequency, course and therapeutic intervention.” for “therapy.”

[3] = test system: restless legs syndrome patients; test: as above; assay type: in vivo; details: 6 months or more after treatment, compared with L-Dopa
D2 family of receptors = details: cited from earlier work
[4] = of 9 patients, under cabergoline

## C=CCN1C[C@H](C(=O)N(CCCN(C)C)C(=O)NCC)C[C@@H]2c3cccc4[nH]cc(c34)C[C@H]21 [Cabergoline, 1((6-allylergolin-8β-yl) -carbony.)-1-(3-(dimethylamino)propyl)-3-ethylurea]
[1]; 12-week treatment, 1 to 4 mg (mean 2.1 mg)
  subjective and objective sleep parameters (in words): marked improvement
[1]; all patients, 12 weeks, 1 to 4 mg single evening dose
  relief of RLS symptoms (in words): significant relief or became free of RLS symptoms; also recorded: complete or significant relief of RLS symptoms
[1]; endpoint, baseline 2.1
  times patients had to get up per night (sleep diary): 0.6 times per night
[1]; human, in vivo
  duration of efficacy in RLS therapy: 24 h
[1]; of 9 patients, endpoint
  markedly satisfied with sleep, number of patients: 4
  moderately satisfied with sleep, number of patients: 1
  moderately unsatisfied with sleep, number of patients: 2
  severity of illness rated borderline (PGI), number of patients: 2
  severity of illness rated moderately ill (PGI), number of patients: two
[1]; of 9 patients, endpoint, at baseline extremely (2), very (4) or markedly (3) ill
  severity of illness rated normal (PGI), number of patients: 5
[1]; of 9 patients, endpoint, baseline very (1), markedly (6) or moderately (2) unsatisfied
  very satisfied with sleep, number of patients: 2
[1]; [4]
  general condition much better (PGI), number of patients: 3
  general condition very much better (PGI), number of patients: 6
[1]; scale 0=not present to 10=very strong, last week, baseline 4.9±4.3
  RLS severity during the time of falling asleep: 0.4±0.7
[1]; scale 0=not present to 10=very strong, last week, baseline 5.1±3.4
  RLS severity during the day: 0.8±1.7
[1]; scale 0=not present to 10=very strong, last week, baseline 6.7±2.7
  RLS severity during the night: 1.6±2.6
[1]; scale zero (very bad) to 10 (very good), endpoint, baseline 3.1
  global quality of the previous night (sleep diary): 6.9
[1]; single evening dose, incl. severe RLS and levodopa augmentation
  efficacy in restless legs syndrome (in words): effective and well tolerated; also recorded: very effective and well tolerated
[1]; vs. baseline conditions
  quality of life (Hamburger Visual Analogue Scale), in words: much better
[2]; 4 mg cabergoline monotherapy
  peripheral or other dopaminergic side effects: did not see peripheral or other dopaminergic side effects
[2]; 9 patients, 12 weeks
  total adverse events probably related to study drug: 8
[2]; 12-week treatment
  augmentation under cabergoline: lower incidence; also recorded: did not observe augmentation
[2]; all adverse events
  duration and intensity of adverse events: temporary and considered to be mild to moderate
[2]; all patients
  reversal of levodopa-evoked augmentation of RLS symptoms: reversible
[2]; all patients initially on levodopa
  discontinuation of levodopa during study: discontinued levodopa treatment
[2]; domperidone stopped in all patients
  tolerability (in words): excellent tolerability; also recorded: good tolerability
[2]; in vivo
  changes in laboratory data or ECG: No significant changes
  serious side effects / serious adverse events: no serious side effects; also recorded: no serious adverse events
  withdrawal / discontinuation of patients: no patient withdrew; also recorded: no patient discontinued
[2]; of 9 patients
  patients with adverse events probably related to study drug: 5 patients
[2]; probably related side effects
  diarrhea: 1
  dizziness: 2
  headache: 2
  vertigo: 2
[2]; probably related, led to temporary dose reduction
  nausea: 1 patient
[3]
  tolerance to treatment (in words): low tolerance; also recorded: lack of tolerance
D2 family of receptors
  D2 family agonist activity (in words): full D2 family agonist
